Measured values as given in PMC7156724, “Potent BRD4 inhibitor suppresses cancer cell-macrophage interaction” (Nature Communications, 2020).
“And” between values parts separate entries of the source, which are not always exact repeats. Equal entries are not always repeated.

Legend:
CSF1 mRNA = experiment: RT-qPCR of CSF1 mRNA in human ovarian cancer and melanoma cells; format: cell-based; settings: 50 nM, 48 h
A2780 OC cells and TAMs = experiment: Orthotopic mouse OC model (intraperitoneal A2780 cells, with or without TAMs): tumor weight, ascitic fluid, IF and FACS; format: in vivo
Source text: Shown are immunofluorescent staining of CD68 (macrophage marker, red) and E-Cadherin (cancer cells, green) (a) and quantification of CD68 positive cells (b) in vehicle, NHWD-870 treated H526 (n = 6) and A2780 (n = 5) tumors from Fig. 3a, b, respectively. Scale bar is 100 μm. […] Shown are representative immunofluorescent staining of Ki67 and CD68 (c) and quantification of percentage of Ki67+ cells in CD68+ cells (d). Scale bar is 30 μm. Data are presented as mean ± SEM of five different tumors. e Schematics of the animal experiments using an orthotopic mouse OC model, established by intraperitoneally injecting human A2780 cells into female recipient nude mice. Mice were then either untreated (Ctrl) or treated with NHWD-870 (PO, QD, 3 mg/kg) for 45 days. Half of the recipient mice received A2780 cells plus TAMs isolated from tumors of OC-bearing donor mice. f, g Tumor weights (f) and ascitic fluid volumes (g) at day 45 for mice in (e). […] Shown are representative immunofluorescent staining of Ki67 and CD68 (h) and quantification of Ki67^+CD68^− (i) or Ki67^+CD68^+ (j), or CD68^+ cells (k). Scale bar is 50 μm. Data are presented as mean ± SEM from five different mice. p values were calculated using two-tailed, unpaired t tests in this figure. *p < 0.05; **p < 0.01; ***p < 0.001. Source data are provided as a Source Data file.
To extend our findings, we examined the effects of NHWD-870 in an orthotopic mouse OC model, in which we intraperitoneally injected A2780 OC cells, alone or together with F4/80^+CD11b^+CD206^+ TAMs isolated from the tumor tissues of OC-bearing donor mice 3 days later (Fig. 4e). […] These phenotypes were due to increased proliferation of both tumor cells and macrophages (Ki67^+CD68^− and Ki67^+CD68^+ cells, respectively) (Fig. 4h–i, Ctrl+TAM vs Ctrl). […] The inability to rescue was not due to the limited amount of TAMs (Fig. 4k, CD68^+ cells and Supplementary Fig.11c, d, CD11b^+CD206^+ cells, NHWD-870+TAM vs Ctrl), but likely due to the limited number of proliferating TAMs (Fig. 4j, Ki67^+CD68^+ cells, NHWD-870+TAM vs Ctrl).
4–6 weeks old female BALB/c nude mice were used for most experiments, with the exception of 6–8 weeks old female C57BL/6 mice were used for B16F10 experiments, and 6–8 weeks old male BALB/c nude mice and SD rats were used for pharmacokinetic experiments. All animals were purchased from Shanghai SIPPR-Bk Lab Animal Co., Ltd. All animals were housed under a regimen of 12 h light/12 h dark cycles and specific pathogen-free conditions. 5×10^6 NCI-H526, ES-2, MDA-MB231, A2780, A375, B16F10, and TMD-8 cells (0.1 ml) were injected subcutaneously into female nude mice. The melanoma patient-derived xenograft model was derived from a human melanoma sample (BRAF, NARS and NF1 wild type, and p53 mutant) removed from a patient in Xiangya Hospital. Surgically removed tumor fragments were implanted subcutaneously into female NSG mice. […] Mouse body weight and tumor sizes were measured every 3 days. […] Ascitic volume and tumor weight were measured by an electronic balance. All the procedures were evaluated and approved by the Institutional Animal Care and Use Committee of Central South University and Yale University. […]
with anti-CD45, CD11b and CD206 followed by FACS analysis. Shown are representative FACS plots (c) and quantification of the percentage of CD11b+CD206+ cells (d). Data are presented as mean ± SEM from 5 different mice. p values were calculated using two-tailed, unpaired t tests. **, p<0.01; ***, p<0.001. […]

A2780 cells = experiment: Clonogenic (colony formation) assay, A2780; format: cell-based, human; settings: A2780, 250 nM, 5 days
Procedure: Fig. 2 NHWD-870 inhibited BRD4 phosphorylation and c-MYC expression, and suppressed cell growth. a Representative western blot analysis of p-BRD4 (s484/488), BRD4, c-MYC, and GAPDH after treatment of MDA-MB231, SUM159, A2780 ES-2, and H526 cells with JQ-1 or NHWD-870 at the indicated concentrations for 24 h. GAPDH served as the loading control. Selected from three independent experiments. b MTT assays of H526, A2780, ES-2, and MDA-MB231 cells treated with JQ-1 or NHWD-870 at the indicated concentrations for 5 days. Data are presented as mean ± SEM from three independent experiments. c, d Clonogenic assays of H526, A2780, ES-2 and MDA-MB231 cells treated with 250 nM JQ-1 or NHWD-870 for 5 days. Shown are representative images (c) and quantification of colonies (d). […] Shown are representative images (e) and quantification of relative colony sizes (f). Scale bar, 50 μm. Data are presented as mean ± SEM from five independent experiments. p values were calculated using two-tailed, unpaired t tests in this figure. **p < 0.01; ***p < 0.001. Source data are provided as a Source Data file. […]
5. Colony formation assay. Cells were seeded in 6-well plates at 3,000 cells/well […]
every week. […] Colony numbers were calculated with imageJ version

[1] = day 45, PO, QD, 3 mg/kg, +TAM, 3 mg/kg

Cc1nnn(C)c1-c1cnc2c3c4cnn(C)c4ccc3n([C@H](c3ccccc3)C3CCOCC3)c2c1 [NHWD-870]
relative CSF1 mRNA level (CSF1 mRNA; 2780 (A2780)): 0.0041 and 0.006 and 0.005 | relative CSF1 mRNA level (CSF1 mRNA; YUAME): 0.0004 and 0.0005 and 0.0003 | quantification of CD68+ cells (A2780 OC cells and TAMs; [1]): 15 and 17.9 and 19.9 and 12 and 16.7 | quantification of Ki67+CD68− cells (A2780 OC cells and TAMs; [1]): 10 and 7 and 13 and 9 | fold reduction, in vivo effects on TAMs (A2780 OC cells and TAMs; in vivo): ~ 16 fold | inhibition of proliferating TAMs (A2780 OC cells and TAMs; mouse OC model, Fig. 4j): 94% | proliferating TAMs (Ki67+CD68+ cells), mean (A2780 OC cells and TAMs; mouse OC model, Fig. 4j, Ctrl […]): 0.16% | Clone Number (clonogenic assay) (A2780 cells): 378 and 355 and 313 and 209 and 273
